From patent publication US20220362163A1, “METHODS AND COMPOSITIONS FOR CANCER TREATMENT USING NANOPARTICLES CONJUGATED WITH MULTIPLE LIGANDS FOR BINDING RECEPTORS ON NK CELLS” (The University of North Carolina at Chapel Hill, priority 2019, published 2022) come the findings set out here.

The assay deals with A431 tumor. The assay is described as follows: A431 tumor model in T-cell deficient Nu mice. As to conditions: i.v. at 6, 8, 10 days post-inoculation.

In the case of `COc1cccc2c1C(=O)c1c(O)c3c(c(O)c1C2=O)C[C@@](O)(C(=O)CO)C[C@@H]3O[C@H]1C[C@H](N)[C@@H](O)[C@H](C)O1` [free EPI, epirubicin], the “effect on tumor growth” value was “slightly reduced the rate of tumor growth”.
